Measured values reported in patent publication US8017612B2, “Piperazine compound and use thereof as a HCV polymerase inhibitor” (priority 2006, dated 2011).
Where a name gives a salt, the structure may show the parent alone.

Columns and labels:
[1] = biological target: T1, HCV polymerase (NS5B) type 1b (Hepatitis C virus genotype 1b, UniProt P26663); assay: Assay of enzyme (HCV polymerase) inhibitory activity, type 1b enzyme; assay type: biochemical, HCV BK strain (type 1b); settings: HCV polymerase inhibitory activity IC50, 1b, type 1b enzyme
T1 construct: a region encoding NS5B (J Virol 1991 March, 65(3), 1105-13, 544 amino acids after deletion of 47 amino acids on the C-terminal); 6xHis (C); made in house; host or cells: Escherichia coli
Procedure, shortened: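 IC50 derived from [3H]UTP incorporation into TCA-insoluble RNA, compared with and without test compound. Reaction (25 °C, 60 min, Tris pH 7.5, 5 mM MgCl2): E. coli-expressed 1b NS5B Δ47 with His tag at 0.5 μg/ml, 5 μg/ml run-off substrate RNA, ATP/GTP/CTP 50 μM, UTP 2 μM.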

[2] = biological target: T2, HCV polymerase (NS5B) type 1a (Hepatitis C virus genotype 1a, UniProt P26664); assay: Assay of enzyme (HCV polymerase) inhibitory activity, type 1a enzyme; assay type: biochemical, HCV type 1a (cloned from the blood of patients); settings: HCV polymerase inhibitory activity IC50, 1a, type 1a enzyme
T2 construct: made in house; host or cells: Escherichia coli (by the 'similar method' of the 1b enzyme)
Procedure, shortened: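 Reactions ran 60 min at 25° C in 20 mM Tris-HCl pH 7.5, 5 mM MgCl2, 50 mM NaCl, holding genotype 1a NS5B (1.5 μg/ml, Δ47 C-terminus, 6His), substrate RNA 5 μg/ml, UTP 2 μM with tritiated UTP and other NTPs 50 μM. IC50 derived from incorporated radiolabel in filter-trapped RNA relative to uninhibited reaction.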

Structure (SMILES) | IC50 [1] [nM] | IC50 [2] [nM]
CCCc1ccc(CNC(=O)[C@H]2CN(c3nc4ncncc4s3)CCN2S(=O)(=O)c2ccc(OC(F)(F)F)cc2)cc1 [Example 914, (R)-4-thiazolo[4,5-d]pyrimidin-2-yl-1-(4-trifluoromethoxy-benzenesulfonyl)-piperazine-2-carboxylic acid 4-propyl-benzylamide] | < 100 | < 100
NC(=O)c1nncc2sc(N3CCN(S(=O)(=O)c4ccc(OC(F)(F)F)cc4)[C@@H](C(=O)NCc4ccc(OC(F)(F)F)cc4)C3)nc12 [Example 915, 2-[(R)-4-(4-trifluoromethoxy-benzenesulfonyl)-3-(4-trifluoromethoxy-benzylcarbamoyl)-piperazin-1-yl]-thiazolo[4,5-d]pyridazine-4-carboxylic acid amide] | < 100 | < 100
CNC(=O)c1nncc2sc(N3CCN(S(=O)(=O)c4ccc(OC(F)(F)F)cc4)[C@@H](C(=O)NCc4ccc(OC(F)(F)F)cc4)C3)nc12 [Example 916, 2-[(R)-4-(4-trifluoromethoxy-benzenesulfonyl)-3-(4-trifluoromethoxy-benzylcarbamoyl)-piperazin-1-yl]-thiazolo[4,5-d]pyridazine-4-carboxylic acid methylamide] | < 100 | < 100
Cc1nncc2sc(N3CCN(S(=O)(=O)c4ccc(OC(F)(F)F)cc4)[C@@H](C(=O)NCc4ccc(OC(F)(F)F)cc4)C3)nc12 [Example 917, (R)-4-(4-methyl-thiazolo[4,5-d]pyridazin-2-yl)-1-(4-trifluoromethoxy-benzenesulfonyl)-piperazine-2-carboxylic acid 4-trifluoromethoxy-benzylamide] | < 100 | < 100
O=C(NCc1ccc(OC(F)(F)F)cc1)[C@H]1CN(c2nc3nc(Cl)ncc3s2)CCN1S(=O)(=O)c1ccc(OC(F)F)cc1 [Example 918, (R)-4-(5-chloro-thiazolo[4,5-d]pyrimidin-2-yl)-1-(4-difluoromethoxy-benzenesulfonyl)-piperazine-2-carboxylic acid 4-trifluoromethoxy-benzylamide] | < 100 | < 100
O=C(NCc1ccc(OC(F)(F)F)cc1)[C@H]1CN(c2nc3ncncc3s2)CCN1S(=O)(=O)c1ccc(OC(F)F)cc1 [Example 919, (R)-1-(4-difluoromethoxy-benzenesulfonyl)-4-thiazolo[4,5-d]pyrimidin-2-yl-piperazine-2-carboxylic acid 4-trifluoromethoxy-benzylamide] | < 100 | < 100
Cc1cc(=O)n2nc(N3CCN(S(=O)(=O)c4ccc(OC(F)(F)F)cc4)[C@@H](C(=O)NCc4ccc(OC(F)(F)F)cc4)C3)sc2n1 [Example 920, (R)-4-(7-methyl-5-oxo-5H-[1,3,4]thiadiazolo[3,2-a]pyrimidin-2-yl)-1-(4-trifluoromethoxy-benzenesulfonyl)-piperazine-2-carboxylic acid 4-trifluoromethoxy-benzylamide] | < 100 | 100 to 1000
Cc1ncc2nc(N3CCN(S(=O)(=O)c4ccc(OC(F)(F)F)cc4)[C@@H](C(=O)NCc4ccc(OC(F)(F)F)cc4)C3)sc2n1 [Example 921, (R)-4-(5-methyl-thiazolo[5,4-d]pyrimidin-2-yl)-1-(4-trifluoromethoxy-benzenesulfonyl)-piperazine-2-carboxylic acid 4-trifluoromethoxy-benzylamide] | < 100 | 100 to 1000
O=C(NCc1ccc(OC(F)(F)F)cc1)[C@H]1CN(c2nn3cnnc3s2)CCN1S(=O)(=O)c1ccc(OC(F)(F)F)cc1 [Example 922, (R)-4-[1,2,4]triazolo[3,4-b][1,3,4]thiadiazol-6-yl-1-(4-trifluoromethoxy-benzenesulfonyl)-piperazine-2-carboxylic acid 4-trifluoromethoxy-benzylamide] | < 100 | < 100
O=C1CCC(N2CCN(S(=O)(=O)c3ccc(OC(F)(F)F)cc3)[C@@H](C(=O)NCc3ccc(OC(F)(F)F)cc3)C2)CN1 (stereo partly drawn) [Example 923, (R)-4-(6-oxo-piperidin-3-yl)-1-(4-trifluoromethoxy-benzenesulfonyl)-piperazine-2-carboxylic acid 4-trifluoromethoxy-benzylamide] | 100 to 1000 | 100 to 1000
O=C(NCc1ccc(OC(F)(F)F)cc1)[C@H]1CN(c2ccc(=O)[nH]c2)CCN1S(=O)(=O)c1ccc(OC(F)(F)F)cc1 [Example 924, (R)-4-(6-oxo-1,6-dihydro-pyridin-3-yl)-1-(4-trifluoromethoxy-benzenesulfonyl)-piperazine-2-carboxylic acid 4-trifluoromethoxy-benzylamide hydrochloride] | 100 to 1000 | 100 to 1000
Cc1ncc2sc(N3CCN(S(=O)(=O)c4ccc(C(F)(F)F)cc4)[C@@H](C(=O)NCc4ccc(OC(F)(F)F)cc4)C3)nc2n1 [Example 925, (R)-4-(5-methyl-thiazolo[4,5-d]pyrimidin-2-yl)-1-(4-trifluoromethyl-benzenesulfonyl)-piperazine-2-carboxylic acid 4-trifluoromethoxy-benzylamide] | < 100 | < 100
CCC(F)(F)c1ccc(CNC(=O)[C@H]2CN(c3nc4nc(C)ncc4s3)CCN2S(=O)(=O)c2ccc(OC(F)(F)F)cc2)cc1 [Example 926, (R)-4-(5-methyl-thiazolo[4,5-d]pyrimidin-2-yl)-1-(4-trifluoromethoxy-benzenesulfonyl)-piperazine-2-carboxylic acid 4-(1,1-difluoro-propyl)-benzylamide] | < 100 | < 100
Cc1nc(Cl)c2sc(N3CCN(S(=O)(=O)c4ccc(C(F)(F)F)cc4)[C@@H](C(=O)NCc4ccc(OC(F)(F)F)cc4)C3)nc2n1 [Example 927, (R)-4-(7-chloro-5-methyl-thiazolo[4,5-d]pyrimidin-2-yl)-1-(4-trifluoromethyl-benzenesulfonyl)-piperazine-2-carboxylic acid 4-trifluoromethoxy-benzylamide] | < 100 | < 100
CCC(F)(F)c1ccc(CNC(=O)[C@H]2CN(c3nc4nc(C)nc(Cl)c4s3)CCN2S(=O)(=O)c2ccc(OC(F)(F)F)cc2)cc1 [Example 928, (R)-4-(7-chloro-5-methyl-thiazolo[4,5-d]pyrimidin-2-yl)-1-(4-trifluoromethoxy-benzenesulfonyl)-piperazine-2-carboxylic acid 4-(1,1-difluoro-propyl)-benzylamide] | < 100 | < 100
COc1ncc2sc(N3CCN(S(=O)(=O)c4ccc(OC(F)(F)F)cc4)[C@@H](C(=O)NCc4ccc(OC(F)(F)F)cc4)C3)nc2n1 [Example 929, (R)-4-(5-methoxy-thiazolo[4,5-d]pyrimidin-2-yl)-1-(4-trifluoromethoxy-benzenesulfonyl)-piperazine-2-carboxylic acid 4-trifluoromethoxy-benzylamide] | < 100 | < 100
CN(C)C(=O)c1nncc2sc(N3CCN(S(=O)(=O)c4ccc(OC(F)(F)F)cc4)[C@@H](C(=O)NCc4ccc(OC(F)(F)F)cc4)C3)nc12 [Example 930, 2-[(R)-4-(4-trifluoromethoxy-benzenesulfonyl)-3-(4-trifluoromethoxy-benzylcarbamoyl)-piperazin-1-yl]-thiazolo[4,5-d]pyridazine-4-carboxylic acid dimethylamide] | < 100 | < 100
